Laboratory results: patent US20240199676A1, “ANTIVIRAL COMPOUNDS AND METHODS OF MAKING AND USING THE SAME” (Gilead Sciences, Inc., priority 2022, published 2024)

What was measured:
[1] = GI S9 stability (Ex. Z), dog intestinal S9; type: in vitro ADME; settings: pooled intestinal S9 fractions; dog intestinal S9, 1.0 mg/mL protein, 2 μM substrate, pH 7.4; read-out: GIS9 DOG T½ (per Ex. Z)
Experimental: (§1) Example Z: GI S9 stability data:
(§2) Stock solutions of test compounds in dimethyl sulfoxide (DMSO) having a final concentration of 10 mM were prepared and used in all experiments. Sekisui XenoTech (Kansas City, KS) provided pooled intestinal S9 fractions. All other chemicals were purchased from Sigma-Aldrich (St. Louis, MO) or VWR (West Chester, PA). Internal Standard/Quench (IS/Q) used to stop reactions was 100 nM labetalol in (by volume) methanol (10%) and acetonitrile (90%).
(§3) Stability in Intestinal S9 Fractions: Duplicate aliquots of test compound or positive control substrate were added to S9 stock diluted with phosphate buffered saline (137 mM NaCl, 2.7 mM KCl, 10 mM phosphate buffer), pH 7.4, to obtain a protein concentration of 1.0 mg/mL. The metabolic reactions were initiated by the addition of the substrates to the S9 reaction mixture to a final concentration of 2 μM. At 0, 10, 20, 30, 60 and 120 min, 25 μL aliquots of the reaction mixture were transferred to plates containing 225 μl of IS/Q solution. After quenching, the plates were centrifuged at 3000×g for 30 minutes. 150 μL aliquots of each supernatant were dried down then reconstituted with 300 μL water. Aliquots (10 μL) of the prepared samples were analyzed on a Thermo Q-Exactive mass spectrometer as described below.
(§4) Liquid Chromatography—Mass Spectrometry: Quantification of test compounds and control substrate was performed by analyte/internal standard peak area ratio (PAR) values measured on a Thermo Q-Exactive mass spectrometer coupled to a Dionex UltiMate 3000 HPLC with a Leap Technologies HTC PAL autosampler. The column used for analysis was a Waters Acquity BEH C18 (1.7 μm particle size, 2.1×50 mm). Mobile phase A consisted of 0.1% (v/v) formic acid in water. Mobile phase B consisted of 0.1% (v/v) formic acid in acetonitrile. Elution of analytes was achieved by a series of linear gradients varying the proportions of A and B. The mass spectrometer was calibrated on a weekly basis and mass tolerance of 5 ppm was used.
(§5) Metabolic stabilities in S9 fractions were determined by measuring the rates of disappearance of test compound and positive control substrate.
(§6) Data (% of substrate remaining) were plotted on a semi-log scale and fitted using an exponential decline model:
(§7) Where Ct—% of substrate remaining at time=t; C0—% of substrate remaining at time=0; t—time; T½—half-life The Half-life (T½) is determined by the following equation: […]
(§8) Assuming a first-order reaction, the slope (k) is extrapolated from the aforementioned plotted data.

[2] = GI S9 stability (Ex. Z), rat intestinal S9; type: in vitro ADME; settings: pooled intestinal S9 fractions; rat intestinal S9, 1.0 mg/mL protein, 2 μM substrate, pH 7.4; read-out: GIS9 Rat T½ (per Ex. Z)
Experimental: as §1, §2, §3, §4, §5, §6, §7, §8

[3] = tested on: Respiratory syncytial virus recombinant with luciferase (RSV-Luc5) in NHBE cells; test: NHBE RSV-Luc5 384-well Assay (RSV FLUC NHBE 384 V2, Ex. W); type: cell-based; settings: human respiratory syncytial virus, 72 h, read-out: EC50 RSV FLUC NHBE 384 V2 (per Ex. W)
Description: Example W: NHBE RSV-Luc5 384-well Assay (EC50 RSVFLUC NHBE-384)
Normal Human Bronchial Epithelial (NHBE) cells were purchased from Lonza (Walkersville, MD Cat #CC2540) and maintained in BEGM Bronchial Epithelial Cell Growth Medium BulletKit (Lonza CC-3170).
Cells were thawed, expanded, and were used for experiments at passage 2. Respiratory syncytial virus recombinant with luciferase (RSV-Luc5) (≥1×10^7 Infectious Units/mL (IU/mL) determined by TCID50) was purchased from Microbiologics (Saint Cloud, MN). Viral replication was determined in NHBE cells in the following manner.
(§9) Compounds are prepared in 100% DMSO in 384-well polypropylene plates (Greiner, Monroe, NC, Cat #784201) with 8 compounds per plate in grouped replicates of 4 at 10 serially diluted concentrations (1:3). The serially diluted compounds were transferred to low dead volume Echo plates (Labcyte, Sunnyvale, CA, Cat #LP-0200).
The test compounds were spotted to 384-well assay plates (Greiner, Monroe, NC, Cat#781091) at 200 nL per well using an Echo acoustic dispenser (Labcyte, Sunnyvale, CA). NHBE cells were harvested and suspended in BEGM Bronchial Epithelial Cell Growth Medium BulletKit and seeded to the pre-spotted assay plates at 5,000 cells per well in 30 μL. RSV-Luc5 virus was diluted in BEGM Bronchial Epithelial Cell Growth Medium BulletKit at 500,000 Infectious Units (IU) per mL and 10 μL per well was added to the assay plates containing cells and compounds, for an MOI of 1. The assay plates were incubated for 3 days at 37° C. and 5% CO2. At the end of incubation, One-Glo reagent (Promega, Madison, WI, Cat #E6120) was prepared. The assay plates and One-Glo reagent were equilibrated to room temperature for at least 15 minutes. 40 μL per well of One-Glo reagent was added and the plates were incubated at room temperature for 15 minutes before reading the luminescence signal on an EnVision multimode plate reader (Perkin Elmer, Waltham, MA). Remdesivir was used as positive control and DMSO was used as negative control. Values were normalized to the positive and negative controls (as 0% and 100% replication, respectively) and data was fitted using non-linear regression analysis by Gilead's dose response tool. The EC50 value for each compound was defined as the concentration reducing the viral replication by 50%.

[4] = GI S9 stability (Ex. Z), cyno intestinal S9; type: in vitro ADME; settings: cynomolgus monkey, pooled intestinal S9 fractions; cyno intestinal S9, 1.0 mg/mL protein, 2 μM substrate, pH 7.4; read-out: GIS9 Cyno T½ (per Ex. Z)
Experimental: as §1, §2, §3, §4, §5, §6, §7, §8

[5] = tested on: Respiratory syncytial virus recombinant with luciferase (RSV-Luc5) in HEp-2 cells; test: HEp-2 RSV-Luc5 384-well Assay (EC50 RSVFLUC Hep2-384 v2, Ex. V); type: cell-based; settings: human respiratory syncytial virus, HEp-2, 72 h, read-out: EC50 RSV FLuc Hep-2 384 V2 (per Ex. V)
Description: Example V: HEp-2 RSV-Luc5 384-well Assay (EC50 RSVFLUC Hep2-384 v2)
HEp-2 cell line was purchased from ATCC (Manassas, VA Cat #CCL-23) and maintained in Dulbecco's […] (DMEM) (Corning, New York, NY, Cat #15-018CM) supplemented with 10% fetal bovine serum (FBS) (Hyclone, Logan, UT, Cat #SH30071-03) and 1× Penicillin-Streptonycin-L-Glutamine (Corning, New York, NY, Cat #30-009-CI). Cells were passaged 2 times per week to maintain sub-confluent densities and were used for experiments at passage 5-20. Respiratory syncytial virus recombinant with luciferase (RSV-Luc5) (≥1 ×107 TCID50/ml) was purchased from Microbiologics (Saint Cloud, MN). Viral replication was determined in HEp-2 cells in the following manner.
as §9
The test compounds were spotted to 384-well assay plates (Greiner, Monroe, NC, Cat#781091) at 200 nL per well. HEp-2 cells were harvested and suspended in DMEM (supplemented with 10% FBS and 1× Penicillin-Streptonycin-L-Glutamine) and seeded to the pre-spotted assay plates at 4,000 cells per well in 30 μL. RSV-Luc5 viruses were diluted in DMEM (supplemented with 10% FBS and 1× Penicillin-Streptomycin-L-Glutamine) at 200,000 Infectious Units (IU) per mL and 10 μL per well was added to the assay plates containing cells and compounds, for an MOI=0.5. The assay plates were incubated for 3 days at 37° C. and 5% CO2. At the end of incubation, One-Glo reagent (Promega, Madison, WI, Cat #E6120) was prepared. The assay plates and One-Glo reagent were equilibrated to room temperature for at least 15 minutes. 40 μL per well of One-Glo reagent was added and the plates were incubated at room temp for 15 minutes before reading the luminescence signal on an EnVision multimode plate reader (Perkin Elmer, Waltham, MA). Remdesivir was used as positive control and DMSO was used as negative control. Values were normalized to the positive and negative controls (as 0% and 100% replication, respectively) and data was fitted using non-linear regression analysis by Gilead's dose response tool. The EC50 value for each compound was then determined as the concentration reducing the viral replication by 50%.

CC(C)C(=O)Nc1ncnn2c([C@@H]3O[C@](C#N)(COC(=O)C(C)C)[C@@H](OC(=O)C(C)C)[C@H]3OC(=O)C(C)C)ccc12 [Compound 21, (2R,3S,4S,5S)-2-cyano-5-(4-isobutyramidopyrrolo[2,1-f][1,2,4]triazin-7-yl)-2-((isobutyryloxy)methyl)tetrahydrofuran-3,4-diyl bis(2-methylpropanoate)]
half-life at 2 μM [1]: 5 min | half-life at 2 μM [2]: 1 min | EC50 [3]: 9.08 µM | half-life at 2 μM [4]: 4 min

CC(=O)Nc1ncnn2c([C@@H]3O[C@](C#N)(COC(C)=O)[C@@H](O)[C@H]3O)ccc12 [Compound 31]
EC50 [5]: 50 µM | EC50 [3]: 50 µM
